The results in this text go back to patent US20220177508A1, “C10-Cyclic Substituted 13-Membered Macrolides and Uses Thereof” (Zikani Therapeutics, Inc., priority 2018, published 2022).

Holding throughout (type): cell-based
The test system of assay [1] is S. aureus MP-12. The assay can be described thus: Broth dilution MIC determination (CLSI), S. aureus MP-12. As to conditions: Staphylococcus aureus, MP12; strain MP-12, broth dilution.
Assay [2] concerns E. coli MP-4. Kind of assay: Broth dilution MIC determination (CLSI), E. coli MP-4. As to conditions: Escherichia coli, MP4; strain MP-4, broth dilution; read-out: MIC E. coli MP-4. In general terms: Dilution methods test growth across graded concentrations, often in twofold steps.
Assay [3] concerns K. pneumoniae MP-546. Kind of assay: Broth dilution MIC determination (CLSI), K. pneumoniae MP-546. The following applies: Klebsiella pneumoniae, MP546; strain MP-546, broth dilution.
Assay [4] deals with P. aeruginosa MP-3. Kind of assay: Broth dilution MIC determination (CLSI), P. aeruginosa MP-3. The following applies: Pseudomonas aeruginosa, MP3; strain MP-3, broth dilution.
For assay [5], the system named is A. baumannii MP-15. Kind of assay: Broth dilution MIC determination (CLSI), A. baumannii MP-15. The following applies: Acinetobacter baumannii, MP15; strain MP-15, broth dilution; read-out: MIC A. baumanii MP-15.

Converted amounts (≈) assume the structure as drawn.

For the molecule `CO[C@]1(C)C[C@@H](C)CN(C)[C@H](C2CN(CC(=O)N3CCCC3)C2)COC(=O)C(C)(C)C(=O)[C@H](C)[C@H]1O[C@@H]1O[C@H](C)C[C@H](N(C)C)[C@H]1O` [Compound 45, (3R,6R,8R,9R,10R)-9-(((2S,3R,4S,6R)-4-(dimethylamino)-3-hydroxy-6-methyltetrahydro-2H-pyran-2-yl)oxy)-8-methoxy-4,6,8,10,12,12-hexamethyl-3-(1-(2-oxo-2-(pyrrolidin-1-yl)ethyl)azetidin-3-yl)-1-oxa-4-azacyclotridecane-11,13-dione], the MIC in assay [1] is 4 to 32 µg/mL (≈ 6 to 48 µM); in assay [2], less than 4 µg/mL; in assay [3] it was 4 to 32 µg/mL (≈ 6 to 48 µM); in assay [4], greater than 32 µg/mL; in assay [5], greater than 32 µg/mL.

Regarding `CO[C@]1(C)C[C@@H](C)CN(C)[C@H]([C@@H]2CCCN2C)COC(=O)C(C)(C)C(=O)[C@H](C)[C@H]1O[C@@H]1O[C@H](C)C[C@H](N(C)C)[C@H]1O` [Compound 106, (3R,6R,8R,9R,10R)-9-(((2S,3R,4S,6R)-4-(dimethylamino)-3-hydroxy-6-methyltetrahydro-2H-pyran-2-yl)oxy)-8-methoxy-4,6,8,10,12,12-hexamethyl-3-((S)-1-methylpyrrolidin-2-yl)-1-oxa-4-azacyclotridecane-11,13-dione], the minimum inhibitory concentration (MIC) in assay [1], in assay [2], in assay [3], in assay [4] and in assay [5] was greater than 32 µg/mL throughout.

`CO[C@]1(C)C[C@@H](C)CN(C)[C@H]([C@@H]2CCN(C(C)C)C2)COC(=O)C(C)(C)C(=O)[C@H](C)[C@H]1O[C@@H]1O[C@H](C)C[C@H](N(C)C)[C@H]1O` [Compound 46, (3R,6R,8R,9R,10R)-9-(((2S,3R,4S,6R)-4-(Dimethylamino)-3-hydroxy-6-methyltetrahydro-2H-pyran-2-yl)oxy)-3-((R)-1-isopropylpyrrolidin-3-yl)-8-methoxy-4,6,8,10,12,12-hexamethyl-1-oxa-4-azacyclotridecane-11,13-dione]: the minimal inhibitory concentration (MIC) in assay [1] is greater than 32 µg/mL; in assay [2], less than 4 µg/mL; in assay [3] it was 4 to 32 µg/mL (≈ 6.54 to 52.3 µM); in assay [4] it was greater than 32 µg/mL; in assay [5], greater than 32 µg/mL.

Turning to `CO[C@]1(C)C[C@@H](C)CN(C)[C@H](C2CCN(C)CC2)[C@H](C)OC(=O)C(C)(C)C(=O)[C@H](C)[C@H]1O[C@@H]1O[C@H](C)C[C@H](N(C)C)[C@H]1O` [Compound 130, (2S,3R,6R,8R,9R,10R)-9-(((2S,3R,4S,6R)-4-(dimethylamino)-3-hydroxy-6-methyltetrahydro-2H-pyran-2-yl)oxy)-8-methoxy-2,4,6,8,10,12,12-heptamethyl-3-(1-methylpiperidin-4-yl)-1-oxa-4-azacyclotridecane-11,13-dione], the MIC in assay [1] is greater than 32 µg/mL; in assay [2], 4 to 32 µg/mL (≈ 6.54 to 52.3 µM); in assay [3], greater than 32 µg/mL; in assay [4], greater than 32 µg/mL; in assay [5], greater than 32 µg/mL.

In the case of `CO[C@]1(C)C[C@@H](C)CN(C)[C@H](C2CCN(C(=O)CN(C)C)CC2)[C@H](C)OC(=O)C(C)(C)C(=O)[C@H](C)[C@H]1O[C@@H]1O[C@H](C)C[C@H](N(C)C)[C@H]1O` [Compound 159, (2S,3R,6R,8R,9R,10R)-9-(((2S,3R,4S,6R)-4-(dimethylamino)-3-hydroxy-6-methyltetrahydro-2H-pyran-2-yl)oxy)-3-(1-(dimethylglycyl)piperidin-4-yl)-8-methoxy-2,4,6,8,10,12,12-heptamethyl-1-oxa-4-azacyclotridecane-11,13-dione], the MIC in assay [1] was greater than 32 µg/mL; in assay [2] it was 4 to 32 µg/mL (≈ 5.86 to 46.9 µM); in assay [3], greater than 32 µg/mL; in assay [4] it was greater than 32 µg/mL; in assay [5] it was greater than 32 µg/mL.

For the molecule `CO[C@]1(C)C[C@@H](C)CN(C)[C@H]([C@@H]2CCCNC2)COC(=O)C(C)(C)C(=O)[C@H](C)[C@H]1O[C@@H]1O[C@H](C)C[C@H](N(C)C)[C@H]1O` [Compound 77], the MIC in assay [1] was greater than 32 µg/mL; in assay [2] it was 4 to 32 µg/mL (≈ 6.85 to 54.8 µM); in assay [3], 4 to 32 µg/mL (≈ 6.85 to 54.8 µM); in assay [4] it was greater than 32 µg/mL; in assay [5], greater than 32 µg/mL.

In general, MIC refers to the least concentration at which growth counts as inhibited.
